Activity calls are given as the source filed them. Cut-off read from the data, not from the text of the source, for most assays here: actives have a measured EC50 and inactives only a lower limit.
What was measured:
[1] = cells; format: functional, cell-based
[2] = cells; format: functional, cell-based; remark: listed apart in the source
[3] = target: T1, Heat shock factor protein 1 (Mus musculus, UniProt P38532); assay: inhibition of MG132-induced HSE-luciferase signal, confirmation, cell-based, NIH3T3, luminescence, dose retest (AID 2382); format: functional;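 note: NIH3T3 fibroblasts with HSF1-driven luciferase reporter stressed by proteasome inhibitor MG132; luminescence from HSF1-driven luciferase expression after 8 hours of MG132 stress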
T1 sequence (P38532 whole entry): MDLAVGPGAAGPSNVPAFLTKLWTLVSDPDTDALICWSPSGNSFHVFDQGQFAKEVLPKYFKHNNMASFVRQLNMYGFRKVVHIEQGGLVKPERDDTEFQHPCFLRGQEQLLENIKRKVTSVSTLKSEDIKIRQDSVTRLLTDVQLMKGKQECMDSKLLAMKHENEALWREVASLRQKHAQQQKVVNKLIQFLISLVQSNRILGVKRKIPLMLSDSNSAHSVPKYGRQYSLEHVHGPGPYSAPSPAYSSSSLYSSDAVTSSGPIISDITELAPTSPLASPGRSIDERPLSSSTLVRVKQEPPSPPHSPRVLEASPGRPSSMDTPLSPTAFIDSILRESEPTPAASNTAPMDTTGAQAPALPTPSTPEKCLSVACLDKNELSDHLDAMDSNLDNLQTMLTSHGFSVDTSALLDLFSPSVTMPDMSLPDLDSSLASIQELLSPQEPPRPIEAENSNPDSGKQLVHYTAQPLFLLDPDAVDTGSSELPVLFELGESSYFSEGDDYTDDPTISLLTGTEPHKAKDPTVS

[4] = tested on: INS1; assay: beta cell apoptosis inhibitors, cytokine rescue, dose response, luminescence, retest (AID 449756); format: functional, cell-based; conditions: Rattus norvegicus, INS1;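 note: cell death triggered by IL-1 beta plus TNF-alpha plus IFN-gamma mixture; protective hits raise ATP signal compared with cytokine alone wells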
[5] = HepG2 cell cytotoxicity, dose response, cytotoxicity control for Shn3 inhibitor project, CellTiter-Glo, cherry-picked (AID 624134); format: functional, cell-based
[6] = Shn3 3'UTR reporter inhibitors, dose response, cell-based, Clone20 osteoblasts, firefly luciferase, cherry-picked (AID 624132); format: functional;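 note: firefly luciferase luminescence from reporter carrying the Shn3 3'UTR in osteoblasts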
[7] = inhibitors of SNCA 5'UTR-driven reporter translation, confirmation, H4 neuroglioma cells, luminescence (AID 1988); format: functional, cell-based
[8] = inhibitors of firefly luciferase expression or activity, dose response, H4 neuroglioma cells, luminescence (AID 1990); format: functional, cell-based
[9] = Luminescence Cell-Based Dose Response HTS to Identify Inhibitors of 5'UTR Stem-Loop Driven Prion Protein mRNA Translation in H4 Neuroglioblastoma Cells. [Related pubchem assays: 1827 (Project Summary), 1813 (Primary HTS)]; format: functional
[10] = control 3'UTR Renilla luciferase suppression, dose response, counter-screen for Shn3 inhibitor project, cell-based, Clone20-Shn3RL, cherry-picked (AID 624133); format: functional
[11] = HEp-2 cell cytotoxicity, dose response, cytotoxicity control for RSV inhibitor project, HTS (AID 2410); format: functional; conditions: human respiratory syncytial virus
[12] = target: Paired box protein Pax-8 (Homo sapiens, UniProt Q06710); assay: inhibitors of PAX8-driven TPO luciferase reporter, dose response, RMG-I cells, cherry-pick (AID 687027); format: functional, cell-based;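 note: luciferase reporter driven by Pax8 target thyroperoxidase promoter measured by SteadyGlo luminescence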
[13] = target: Cytochrome P450 2C9 (Homo sapiens, UniProt P11712)
[14] = tested on: Streptococcus; assay: Group A Streptococcus viability loss, dose response, counter-screen for streptokinase expression inhibitor project, luminescence, BacTiterGlo (AID 1915); format: functional, organism-based;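 note: potency for reduction of bacterial viability or growth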
[15] = target: T2, Streptokinase A (Streptococcus pyogenes serotype M1, UniProt P10520); assay: S. pyogenes streptokinase expression inhibitors, potency, dose response, plasminogen activation absorbance, OD405 (AID 1914); format: functional, Streptococcus pyogenes M1 GAS;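 note: secreted streptokinase activity via plasminogen activation per viability signal from cell pellet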
T2 sequence (P10520 whole entry): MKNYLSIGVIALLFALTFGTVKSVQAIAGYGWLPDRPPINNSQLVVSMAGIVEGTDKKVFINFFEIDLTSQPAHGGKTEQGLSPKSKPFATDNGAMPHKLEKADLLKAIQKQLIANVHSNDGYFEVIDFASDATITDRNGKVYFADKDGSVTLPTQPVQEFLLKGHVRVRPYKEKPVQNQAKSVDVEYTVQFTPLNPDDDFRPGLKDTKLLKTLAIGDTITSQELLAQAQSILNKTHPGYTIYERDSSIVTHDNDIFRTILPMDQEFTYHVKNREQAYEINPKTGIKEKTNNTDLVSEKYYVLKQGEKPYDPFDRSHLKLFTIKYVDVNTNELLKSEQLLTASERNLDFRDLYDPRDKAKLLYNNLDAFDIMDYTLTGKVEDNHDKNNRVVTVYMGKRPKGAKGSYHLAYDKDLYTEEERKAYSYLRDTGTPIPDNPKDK

Paired box protein Pax-8, sequence (Q06710 whole entry): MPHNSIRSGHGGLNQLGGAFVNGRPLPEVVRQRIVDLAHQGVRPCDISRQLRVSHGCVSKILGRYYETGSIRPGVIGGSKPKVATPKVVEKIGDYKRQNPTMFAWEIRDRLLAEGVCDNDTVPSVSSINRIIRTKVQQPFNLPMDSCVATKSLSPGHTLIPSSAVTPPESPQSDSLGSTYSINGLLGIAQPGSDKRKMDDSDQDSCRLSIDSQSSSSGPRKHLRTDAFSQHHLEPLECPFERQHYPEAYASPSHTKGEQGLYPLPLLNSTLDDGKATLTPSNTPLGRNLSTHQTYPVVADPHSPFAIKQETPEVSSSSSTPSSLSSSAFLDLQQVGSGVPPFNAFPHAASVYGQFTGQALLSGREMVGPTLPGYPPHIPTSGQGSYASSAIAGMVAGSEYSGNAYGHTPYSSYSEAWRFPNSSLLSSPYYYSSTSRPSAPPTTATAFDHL
Cytochrome P450 2C9, sequence (P11712 whole entry): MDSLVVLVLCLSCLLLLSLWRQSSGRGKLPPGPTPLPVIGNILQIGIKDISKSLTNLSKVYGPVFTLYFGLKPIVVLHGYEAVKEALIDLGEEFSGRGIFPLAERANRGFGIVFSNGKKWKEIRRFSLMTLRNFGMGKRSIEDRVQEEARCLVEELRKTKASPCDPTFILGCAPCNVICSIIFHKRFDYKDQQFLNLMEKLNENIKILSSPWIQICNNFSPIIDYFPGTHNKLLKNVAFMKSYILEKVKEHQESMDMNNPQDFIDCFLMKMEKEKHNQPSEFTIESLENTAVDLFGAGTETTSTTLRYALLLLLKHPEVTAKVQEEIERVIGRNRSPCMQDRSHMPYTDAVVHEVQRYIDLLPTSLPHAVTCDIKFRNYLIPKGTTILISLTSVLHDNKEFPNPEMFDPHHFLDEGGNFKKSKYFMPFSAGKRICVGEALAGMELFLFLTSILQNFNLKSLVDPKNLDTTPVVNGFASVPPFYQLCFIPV

COc1ccccc1NC(=O)CN(C)S(=O)(=O)c1cccc2cccnc12
EC50 [1]: > 350 µM (not active)
EC50 [2]: > 350 µM (not active)

CCOc1ccc(C2N(c3ccc(F)cc3)C(=O)C3CCCN32)cc1OC (stereo not given)
EC50 [3]: > 195 µM (not active)

CCCC(=O)C1=C(NCc2ccccc2)CC(C)(C)CC1=O
EC50 [1]: > 350 µM (not active)
EC50 [2]: > 350 µM (not active)

COc1ccc(OC)c(Nc2nc(NCCC(C)C)nc(N)c2[N+](=O)[O-])c1
EC50 [1]: > 350 µM (not active)
EC50 [2]: > 350 µM (not active)

COc1cccc(C(=O)CN2C(=O)C(C)(C)Oc3ccc(C(=O)N4CCOCC4)cc32)c1
EC50 [1]: > 350 µM (not active)
EC50 [2]: > 350 µM (not active)

O=C(NCc1cccnc1)Nc1ccc([N+](=O)[O-])cc1
AC50 [4]: 11.8 µM (active)

CN(Cc1ccccc1)C(=O)c1cccc(NC(=O)Cc2ccc([N+](=O)[O-])cc2)c1
AC50 [5]: > 70 µM (inactive)
AC50 [6]: 16.8 µM (active)

CCOc1ccc(Oc2nc(NCC(C)C)nc(N(C)C)n2)nn1
EC50 [7]: > 120 µM (not active)
EC50 [8]: 115 µM (active)
EC50 [9]: > 120 µM (not active)

COc1cc(C(=O)NC2CCCc3c2cnn3-c2ccccc2F)cc(OC)c1OC (stereo not given)
AC50 [5]: 6.29 µM (active)
AC50 [10]: 4.13 µM (active)
AC50 [6]: 0.781 µM (active)

Cc1ccc(S(=O)(=O)c2cc3c(=O)n4cccc(C)c4nc3n(Cc3ccncc3)c2=N)cc1
EC50 [7]: > 120 µM (not active)
EC50 [8]: > 120 µM (not active)
EC50 [9]: > 120 µM (not active)

CC(=O)Nc1ccc(CN2CCC(CO)(CCOc3ccccc3)CC2)cc1
EC50 [3]: > 195 µM (not active)

COC(=O)c1sccc1S(=O)(=O)Nc1ccc(N2CCCCC2)cc1
AC50 [4]: 29 µM (active)

Cn1/c(=N/C(=O)C2CCCCC2)sc2cc([N+](=O)[O-])ccc21
CC50 [11]: > 50 µM (active)

O=S(=O)(c1ccc2c(c1)OCCO2)N1CCC(c2nc(O)c3nnn(Cc4cccc(F)c4)c3n2)CC1
CC50 [11]: 31.9 µM (active)

CCCCN(C(=O)c1ccc([N+](=O)[O-])s1)c1c(N)n(CCCC)c(=O)[nH]c1=O
EC50 [3]: > 195 µM (not active)

CC(=O)c1cccc(NS(=O)(=O)c2ccc(N/C=C/C(=O)c3ccc(F)cc3)cc2)c1
AC50 [4]: 4.36 µM (active)

CCOC(=O)c1oc2ccccc2c1NC(=O)CN1CCN(C)CC1
EC50 [7]: 7 µM (active)
EC50 [8]: 10.9 µM (active)
EC50 [9]: 17.6 µM (active)

COC(=O)C1=C(N)Oc2cc(N(C)C)ccc2C1c1ccccc1OC (stereo not given)
EC50 [7]: 6.94 µM (active)
EC50 [8]: 11.3 µM (active)

Cc1cccc2[nH]c(CN(C)C(=O)C3CCC(=O)N(C4CC4)C3)nc12 (stereo not given)
EC50 [1]: > 350 µM (not active)
EC50 [2]: > 350 µM (not active)

COc1ccc(C2(C)NC(=O)N(CC(=O)Nc3ccc4c(c3)OCO4)C2=O)cc1OC (stereo not given)
EC50 [7]: > 120 µM (not active)
EC50 [8]: > 120 µM (not active)
EC50 [9]: > 120 µM (not active)

Cc1c(C(=O)C(=O)NCc2cccs2)c2ccccc2n1C
EC50 [3]: > 195 µM (not active)

CC(=O)c1c(N2CCN(CCO)CC2)nc(=S)n(-c2ccccc2)c1C
EC50 [3]: > 195 µM (not active)

O=C1C=C(c2ccnc3cc(Cl)ccc23)C[C@@H](c2ccc3c(c2)OCO3)C1
AC50 [5]: 27.6 µM (active)
AC50 [10]: 0.312 µM (active)
AC50 [6]: 1.36 µM (active)

O=S(=O)(c1ccccc1F)N1CC[C@@H]2[C@@H](CO)Nc3ccc(C4=CCCCC4)cc3[C@@H]21
AC50 [12]: 10.5 µM (active)

COc1cccc(N2CCN(CC(=O)Nc3ccc(SC(F)F)cc3)CC2)c1
EC50 [7]: > 120 µM (not active)
EC50 [8]: > 120 µM (not active)
EC50 [9]: > 120 µM (not active)

COc1ccc(OC)c(-c2cc(C(=O)N/N=C/c3cc(OC)c(OC)cc3OC)c3ccccc3n2)c1
EC50 [3]: > 195 µM (not active)

CN(C)c1ccc(S(=O)(=O)NCC(=O)OCC(=O)Nc2cc(Cl)cc(Cl)c2)cc1[N+](=O)[O-]
EC50 [1]: > 350 µM (not active)
EC50 [2]: > 350 µM (not active)

COc1ccc(OCC(=O)NNC(=S)NC(=O)c2ccc(Br)o2)cc1
AC50 [5]: > 70 µM (inactive)
AC50 [10]: 12.4 µM (active)
AC50 [6]: 5.27 µM (active)

Cc1ccc(F)cc1NC(=O)CSc1nc(Nc2ccccc2)nc(N2CCOCC2)n1
EC50 [7]: 15.6 µM (active)
EC50 [8]: 14.8 µM (active)
EC50 [9]: > 120 µM (not active)

O=C(Nc1ccc(F)cc1)c1cccnc1
AC50 [4]: 14.5 µM (active)

CCN(CC)S(=O)(=O)c1ccc(C)c(NC(=S)N2CCN(C/C=C/c3ccccc3)CC2)c1
AC50 [5]: 67.5 µM (active)
AC50 [10]: 2.53 µM (active)
AC50 [6]: 2.55 µM (active)

COc1ccc(-c2nnc(NC(=O)c3ccc4c(c3)OCCO4)o2)cc1
EC50 [7]: > 120 µM (not active)
EC50 [8]: > 120 µM (not active)
EC50 [9]: > 120 µM (not active)

CCN(CC)C(=O)c1cc2cc([N+](=O)[O-])ccc2s1
EC50 [3]: > 195 µM (not active)
AC50 [13]: 17.8 µM (inconclusive)

Cc1ccc(S(=O)(=O)N(C)C)cc1NC(=O)COC(=O)/C(=C/c1ccc(F)cc1)c1cccs1
CC50 [11]: 29.7 µM (active)

CC(C)(C)c1csc(NNC(=O)c2ccc(Br)cc2)n1
EC50 [14]: > 150 µM (not active)
EC50 [1]: > 350 µM (not active)
EC50 [2]: 21 µM (active)
EC50 [15]: > 150 µM (not active)

O=C(Nc1ccccn1)C1CCN(c2ncnc3c2nc2n3CCCCC2)CC1
CC50 [11]: 18.5 µM (active)

O=C(O)COc1ccccc1/C=N/NC(=O)c1ccc2c(c1)OCCO2
EC50 [3]: > 195 µM (not active)

CCOc1cc2sc(N3CCC(C(=O)NCCCN4CCCC4=O)CC3)nc2cc1Br
CC50 [11]: 19.8 µM (active)

Cc1cc(C)[n+](Cc2ccccc2)cc1C(N)=O
EC50 [1]: > 350 µM (not active)
EC50 [2]: > 350 µM (not active)

O=C(Nc1ccc(Cl)c(Cl)c1)c1cccc(S(=O)(=O)NCc2cccnc2)c1
AC50 [5]: 6.59 µM (active)
AC50 [6]: 5.39 µM (active)

Cc1cccc2sc(NC(=O)C3CSC4(C)CCC(=O)N34)nc12 (stereo not given)
EC50 [7]: > 120 µM (not active)
EC50 [8]: > 120 µM (not active)
EC50 [9]: > 120 µM (not active)

Cc1ccc(/C=C/C2=NN(Cc3ccccc3)C(=O)CC2)cc1
CC50 [11]: 15 µM (active)

CC(=O)C(C)Oc1ccc2c3c(c(=O)oc2c1)CCCCC3 (stereo not given)
CC50 [11]: > 50 µM (active)

O=C(COC(=O)Cc1ccsc1)NCC12CC3CC(CC(C3)C1)C2
EC50 [3]: > 195 µM (not active)

CC(=O)c1cccc(Nc2nc(-c3ccccc3)cs2)c1
CC50 [11]: 21.2 µM (active)

Cc1ccccc1OCC(=O)Nc1ccc(N2CCN(C)CC2)c(Cl)c1
EC50 [1]: > 350 µM (not active)
EC50 [2]: > 350 µM (not active)

CCn1nc(NS(=O)(=O)c2ccc(NC(C)=O)cc2)c2cc3cccc(C)c3nc21
EC50 [1]: > 350 µM (not active)
EC50 [2]: > 350 µM (not active)

CCO[C@@H]1OC(C(=O)NCc2ccccc2)=C[C@H](c2ccc3c(c2)OCO3)[C@H]1CCCO
EC50 [3]: > 195 µM (not active)

CCOC(=O)c1c(N)n(CCCOC(=O)c2ccco2)c2nc3ccccc3nc12
EC50 [7]: 8.24 µM (active)
EC50 [8]: > 120 µM (not active)
EC50 [9]: > 120 µM (not active)

CCc1noc(C)c1C(=O)Oc1ccc(N(C)S(=O)(=O)c2ccccc2)cc1
CC50 [11]: 26.2 µM (active)

CO/C(O)=C1/C(C)=Nc2c(c(=O)n(C)c(=O)n2C)C1c1cccc(O)c1 (stereo not given)
EC50 [3]: 27.8 µM (active)

C/C(=N\NC1=NCCN1)c1ccc(N)c([N+](=O)[O-])c1
EC50 [3]: > 195 µM (not active)

OCc1nn2c(c1Br)NC(c1ccccc1)CC2C(F)(F)F (stereo not given)
EC50 [3]: > 195 µM (not active)

Reference: ChEMBL document CHEMBL1201862, “PubChem BioAssay data set” (2004)
